Test results published in patent publication US20190389830A1, “NRF2 ACTIVATOR” (BIOGEN MA INC., priority 2017, published 2019).

Key:
Type in all cases: cell-based
[1] = system: human astrocytes; test: Cytoprotection of astrocytes against sodium arsenite; conditions: compound 20 hrs before 25 μM sodium arsenite, further 22 hrs (FIG. 3)
Experimental: (§1) Human astrocytes from ScienCell (cat #1820) were grown in astrocyte medium per supplier's instructions. Cells cultured for no more than two passages were plated in 96-well plates at 40,000 cells per well for gene transcription experiments and 20,000 cell per well for glutathione and cytoprotection assays.
Astrocytes were treated for 20 hrs as above, then the medium was removed and replaced with serum- and supplement-free growth medium with and without 25 μM sodium arsenite. After 22 hrs., cells were washed with PBS, fixed with 4% paraformaldehyde/4% sucrose in PBS, stained with 4′,6-Diamidino-2-phenylindole dihydrochloride (DAPI) and counted by quantitative fluorescence microscopy.

[2] = system: Nrf2 target genes; test: Gene expression (RT-PCR) in cultured human astrocytes; conditions: 20 hours, increasing concentrations
Experimental: as §1
Primary cultures of human spinal cord astrocytes were treated with compound 3-Ent1 for 20 hours. The cells were then rinsed in PBS, lysed, and processed for RNA using Ambion Taqman™ Cells-to-CT kit. The resulting cDNA was stored at −20° C. until analysis by real-time polymerase chain reaction (RT-PCR). The cDNA mixture from Cells-to-CT was diluted 5x before loading into PCR. This yields results similar to using 6 ng of purified cDNA. RT-PCR was performed on Life Technologies QuantStudio platform using OpenArray technique according to manufacturer's protocol using the following Taqman primers: […]
The comparative CT method was used to calculate fold changes using ThermoFisher Cloud software for PCR analysis. Samples were compared to vehicle control.

[3] = system: human astrocytes; test: Glutathione assay (GSH-Glo) in human astrocytes; conditions: 20-hr exposure (FIG. 2)
Experimental: as §1
Intracellular glutathione was measured after a 20-hr exposure to test compound 3-Ent1 by a two-step process. First, cells were lysed and luciferin quantitatively generated from substrate, catalyzed by glutathione-S-transferase in the presence of analyte glutathione. Then luciferin was assayed using stabilized luciferase to produce a luminescent signal proportional to the concentration of glutathione (Promega GSH-Glo, cat #V6912).

CC1CCC2(C)C=C(C#N)C(=O)C(C)(C)C2O1 (single isomer, unassigned; ent1) [Compound 3-Ent1]
protection from oxidative stress-induced cell death [1]: protects cells
transcription of GCLC ([2]; compared to vehicle control (FIG. 1A)): induces transcription
transcription of HMOX1 ([2]; compared to vehicle control (FIG. 1B)): induces transcription
transcription of OSGIN1 ([2]; compared to vehicle control (FIG. 1C)): induces transcription
transcription of NQO1 ([2]; compared to vehicle control (FIG. 1D)): induces transcription
intracellular glutathione [3]: increases
